From US6984404B1, “Methods for preparing coated drug particles and pharmaceutical formulations thereof” (University of Florida Research Foundation, Inc., priority 1998, dated 2006)
Several values for one entry are separate records, joined by “and”; a condition that tells them apart may be missing. Equal values may be shown once. Read-outs that look alike come from different tables or passages of the source. Values belong to the molecule of their own block, whether it stands above or below them.

Legend:
[1] = cited from earlier work; for half-life after intravenous administration: intravenous (FP: terminal half-life)
[2] = Plasma concentration after intratracheal administration in rats; type: in vivo
Experimental: Characterization of films deposited on silicon wafers or glass slides was performed using SEM. FTIR, and NMR to characterize polymer structure and morphology. The BUD10 and BUD25 coated powders were tested in vitro to assess differences in the dissolution rates. […] Comparison of the plasma concentrations after IT administration of the coated powders with uncoated BUD powders and IV administration of BUD solution, as well as with FP after IT administration, were performed to compare absorption rates. Finally, the pulmonary targeting of coating BUD25 powders after IT administration was compared with the pulmonary targeting of uncoated BUD and FP powders after IT administration and BUD solution after IV administration. Verification of deposited polymer on silicon wafers using NMR and FTIR was used to characterize molecular structure.

[3] = test system: plasma protein; settings: cited from earlier work
[4] = target: T1, glucocorticoid receptor (GR) (Homo sapiens, UniProt P04150); settings: cited from earlier work
T1 sequence (P04150 1-777): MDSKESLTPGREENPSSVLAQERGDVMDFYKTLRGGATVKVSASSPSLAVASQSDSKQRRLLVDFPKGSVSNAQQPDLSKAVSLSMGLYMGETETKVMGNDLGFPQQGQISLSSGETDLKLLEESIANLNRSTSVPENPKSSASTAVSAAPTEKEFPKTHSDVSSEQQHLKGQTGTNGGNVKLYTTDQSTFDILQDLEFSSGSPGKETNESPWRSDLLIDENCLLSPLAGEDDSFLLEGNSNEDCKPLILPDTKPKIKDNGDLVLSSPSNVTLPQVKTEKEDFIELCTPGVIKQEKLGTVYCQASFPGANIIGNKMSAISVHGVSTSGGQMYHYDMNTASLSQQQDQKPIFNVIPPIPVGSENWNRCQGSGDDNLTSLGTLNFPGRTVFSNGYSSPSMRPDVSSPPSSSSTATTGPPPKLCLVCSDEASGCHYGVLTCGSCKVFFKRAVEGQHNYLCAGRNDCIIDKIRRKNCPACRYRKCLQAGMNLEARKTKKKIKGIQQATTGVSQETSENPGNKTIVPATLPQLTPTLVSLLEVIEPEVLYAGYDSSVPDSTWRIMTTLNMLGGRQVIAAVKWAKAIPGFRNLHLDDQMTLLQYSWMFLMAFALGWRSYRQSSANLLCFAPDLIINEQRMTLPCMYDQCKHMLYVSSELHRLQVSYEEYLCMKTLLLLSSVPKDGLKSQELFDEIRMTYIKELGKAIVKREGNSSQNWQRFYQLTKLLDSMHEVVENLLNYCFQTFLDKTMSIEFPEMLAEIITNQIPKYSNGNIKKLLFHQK

[5] = cited from earlier work; for pulmonary deposition ratio, MDI: metered dose inhaler (TA: Azmacort MDI with spacer)
[6] = rats; cited from earlier work

time of peak plasma concentration [2]: 0.5 h
MAT ([2]; calculated): 0.3 h
Molecule: CCCC1O[C@@H]2C[C@H]3[C@@H]4CCC5=CC(=O)C=C[C@]5(C)[C@H]4[C@@H](O)C[C@]3(C)[C@]2(C(=O)CO)O1 (stereo partly shown) [Budesonide, budesonide]
Cmax ([1]; after inhalation via Turbohaler): 3.5 nM
plasma half-life ([1]; approximately the same after intravenous and inhalation administration): 2.8 h
oral bioavailability ([1]; in vivo): 11%
volume of distribution at steady state ([1]; in vivo): 183 L
first-pass metabolism of an oral dose ([1]; oral): About 89%
plasma protein binding [3]: 88%

Molecule: CCC(=O)O[C@]1(C(=O)SCF)[C@H](C)C[C@H]2[C@@H]3C[C@H](F)C4=CC(=O)C=C[C@]4(C)[C@@]3(F)[C@@H](O)C[C@@]21C [FP, fluticasone propionate]
t1/2 (dose-dependent) ([1]; Möllmann et al., 1998): 5.2 to 7.4 h and 6.0 ± 0.7 h
terminal half-life after inhalation ([1]; Thorsson et al. 1997): 10 h
mean absorption time (MAT) ([1]; after inhalation): 4.9 h
oral bioavailability ([1]; in vivo): less than 1%
clearance ([1]; in vivo): 66 L/h
drug excreted in the feces ([1]; in vivo): 87–100%
excreted as the inactive 17-carboxylic acid ([1]; in vivo): 340%
volume of distribution at steady state ([1]; in vivo): 318 L
overall bioavailability after inhalation ([1]; inhalation): 10–15%
mean residence time after inhaled administration (AUMC/AUC) ([1]; inhaled): 9.1 ± 1.1 h and 7.8 to 11 h
half-life after intravenous administration [1]: 7.7 to 8.3 h
receptor binding affinity (RBA) [4]: 1800
pulmonary deposition ratio, DPI ([5]; dry powder inhaler): 15%
pulmonary deposition ratio, MDI [5]: 26%
plasma protein binding [3]: 90%

Molecule: CC1(C)O[C@@H]2C[C@H]3[C@@H]4CCC5=CC(=O)C=C[C@]5(C)[C@@]4(F)[C@@H](O)C[C@]3(C)[C@]2(C(=O)CO)O1 [TA, triamcinolone acetonide]
mean residence time ([1]; after intravenous administration): 2.7 h
absorption of suspension in the lungs ([1]; by the difference in half-lives of intravenous versus inhaled doses): ~2 h
oral bioavailability ([1]; in vivo): 20–25%
clearance ([1]; in vivo): 37.3 L/h
volume of distribution ([1]; in vivo): 100 to 150 L
half-life after inhaled dose ([1]; inhaled): 3.6 h
half-life after intravenous administration [1]: 1.4 to 2.0 h
pulmonary deposition ratio, MDI [5]: approximately 22%
plasma protein binding [3]: 71%

Molecule: CC(C)NCC(O)c1ccc(O)c(O)c1 (stereo not shown) [free isopreternol, isoproterenol]
duration of amelioration of bronchoconstriction [6]: 30 min

Molecule: Triamcinolone acetonide phosphate [TAP]
plasma half-life ([1]; IV administration in humans): 0.05 to 0.067 h
